According to patent US9957257B2, “Amide compounds as 5-HT4 receptor agonists” (SUVEN LIFE SCIENCES LIMITED, priority 2015, dated 2018):

What was measured:
[1] = Object recognition task model; format: in vivo, Male Wistar rats; details: 0.1 mg/kg, p.o.
Method: The cognition enhancing properties of compounds of this invention were estimated by using this model.
Male Wistar rats (230-280 grams) were used as experimental animals. Four animals were housed in each cage. Animals were kept on 20% food deprivation before one day and given water ad libitum throughout the experiment and maintained on a 12 hours light/dark cycle. Also the rats were habituated to individual arenas for 1 hour in the absence of any objects.
One group of 12 rats received vehicle (1 mL/Kg) orally and another set of animals received compound of the formula (I) either orally or i.p., before one hour of the familiar (T1) and choice trial (T2).
The experiment was carried out in a 50×50×50 cm open field made up of acrylic. In the familiarization phase, (T1), the rats were placed individually in the open field for 3 minutes, in which two identical objects (plastic bottles, 12.5 cm height×5.5 cm diameter) covered in yellow masking tape alone (a1 and a2) were positioned in two adjacent corners, 10 cms from the walls. After 24 hours of the (T1) trial for long-term memory test, the same rats were placed in the same arena as they were placed in T1 trial. Choice phase (T2) rats were allowed to explore the open field for 3 minutes in presence of one familiar object (a3) and one novel object (b) (Amber color glass bottle, 12 cm high and 5 cm in diameter). Familiar objects presented similar textures, colors and sizes. During the T1 and T2 trial, explorations of each object (defined as sniffing, licking, chewing or having moving vibrissae whilst directing the nose towards the object at a distance of less than 1 cm) were recorded separately by stopwatch. Sitting on an object was not regarded as exploratory activity, however, it was rarely observed.
T1 is the total time spent exploring the familiar objects (a1+a2).
T2 is the total time spent exploring the familiar object and novel object (a3+b).
The object recognition test was performed as described by Behaviour Brain Research, 31 (1988), 47-59.

[2] = system: acetylcholine; assay: Modulation of acetylcholine from the frontal cortex (microdialysis); format: in vivo, male Wistar rats; details: p.o.
From the text: Male Wistar rats (240-300 grams) were stereotaxically implanted with a microdialysis guide cannula in frontal cortex (AP: +3.2 mm, ML: −3.2 mm, DV: −1.5 mm). Co-ordinates were taken according to Paxinos and Watson (2004) with reference points taken from bregma and vertical from the skull. The rats were allowed to recover individually for four to five days in a round bottom Plexiglas bowl with free access to feed and water.
One day prior to the microdialysis experiment, rats were connected to a dual quartz lined two-channel liquid swivel (Instech, UK) on a counter balance lever arm, which allowed unrestricted movements of the animal. Sixteen hour before start of study, a pre-equilibrated microdialysis probe (3 mm dialysis membrane) was inserted into the frontal cortex through the guide cannula.
A stabilization period of 2 hours was maintained and five basal samples were collected at 20 minutes intervals. The test compound, Example 50 or vehicle was administered and dialysate samples were collected at 20 minutes interval for an additional period of 4 hours. Dialysates were stored below −70° C. until quantitation of acetylcholine.
Acetylcholine in dialysate was quantified in the calibration range of 0.103 nmol-103.491 nmol using LC-MS/MS method.
All microdialysis data were plotted as percent change from mean dialysate basal concentrations with 100% defined as the average of five pre-dose values. The AUC was calculated by trapezoidal rule using WinNonlin (5.0.1 version, Pharsight Corp. CA). The statistical significance between the mean AUC values of treatment groups with vehicle was calculated using one-way ANOVA followed by Dunnett's test. For each treatment group, the percent increase in acetylcholine levels was compared to the vehicle group using two-way analysis of variance (time and treatment), followed by Bonferroni's multiple comparison test. Statistical significance was considered at a p value less than 0.05.
In-correct probe placement was considered as criteria to reject the data from animal.

[3] = Radial arm maze; format: in vivo, rats; details: p.o.
From the text: The cognition enhancing properties of test compounds of this invention were estimated by using this model.
Radial arm maze consists of a central hub of 45 cm diameter. Each arm was of dimension 42.5×15×24 cm. The maze was elevated to a height of 1 m above the ground. The animals were placed on a restricted diet until they reached approximately 85% of their free feeding weight. During this diet restriction period animals were habituated to the novel feed (pellets). Once the rats reached approximately 85% of their free feeding weight, rats were habituated to the maze on the 1st and 2nd day. […] Animals were randomized on day 2. On the subsequent days the treatment was given as per the allotment. Each animal was introduced into the maze individually for a period of 10 minutes. The arms were baited only once and the animal had to learn the rule that repeated arm entries would not be rewarded. The trial ended once the rat had visited 16 arms or 10 minutes were over or all the pellets were eaten. The arm entries were recorded using the software. Once the trial was over the rat was removed and the maze was cleaned using soap water.

[4] = Rodent pharmacokinetic study; format: in vivo, Male wistar rats; details: male, Wistar, plasma, rat
Method: Male wistar rats (225±25 grams) were used as experimental animals. Three to five animals were housed in each cage. Two days prior to dosing day, male wistar rats (225-250 grams) were anesthetized with isoflurane for surgical placement of jugular vein catheter. Animals were fasted overnight before oral dosing (p.o) and food pellets were allowed 2 hours post dosing, whereas during intravenous dosing food and water were provided as ad libitum. Three rats were dosed with test compounds (3 mg/kg) orally and intravenously (1 mg/kg).
At each time point blood was collected through jugular vein and immediately replenish with an equivalent volume of normal saline from freely moving rats. Collected blood was transferred into a labeled eppendr off containing 10 μL of heparin as anticoagulant. Typically blood samples were collected as following time points: Pre dose, 0.08 (only i.v.), 0.25, 0.5, 1, 2, 4, 6, 8, and 24 hours post dose-(n=3). Blood was centrifuged at 4000 rpm for 10 minutes. Plasma was prepared and stored frozen at −20° C. until analysis. The concentrations of the test compounds were quantified in plasma by qualified LC-MS/MS method using suitable extraction technique. The test compounds were quantified in the calibration range around 2-2000 ng/mL in plasma. Study samples were analyzed using calibration samples in the batch and quality control samples spread across the batch.
Pharmacokinetic parameters Cmax, Tmax, AUCt, T1/2 and Bioavailability were calculated by non-compartmental model using standard non-compartmental model by using WinNonLin 5.0.1 or Phoenix WinNonlin 6.2 version Software package.

- AUC(0-t) ([4]; 1 mg/kg, intravenous (bolus)): 182 ± 37 ng·h/mL
- half-life ([4]; 1 mg/kg, intravenous (bolus)): 1.2 h
- bioavailability ([4]; 3 mg/kg oral vs 1 mg/kg intravenous): 63 ± 13%
- AUC(0-t) ([4]; 3 mg/kg, oral (gavage)): 346 ± 71 ng·h/mL
- Cmax ([4]; 3 mg/kg, oral (gavage)): 230 ± 56 ng/mL
- Tmax ([4]; 3 mg/kg, oral (gavage)): 0.25 h
- half-life ([4]; 3 mg/kg, oral (gavage)): 1.5 h
Compound: CC(C)(O)CN1CCC(F)(CNC(=O)c2cc(Cl)c(N)c3ccoc23)CC1 [Example 50, 4-Amino-5-chloro-N-{[4-fluoro-1-(2-hydroxy-2-methylpropyl)-4-piperidinyl]methyl}benzofuran-7-carboxamide L(+)-tartarate]
- Exploration time mean ± S.E.M, Familiar object [1]: 9.89 ± 1.49 s
- Exploration time mean ± S.E.M, Novel object [1]: 18.58 ± 2.44 s
- Inference [1]: Active
- Acetylcholine levels, frontal cortex, % of pre-dose levels ([2]; 10.0 mg/kg): 204%
- Area under the curve (AUC), frontal cortex acetylcholine ([2]; 10.0 mg/kg): significant increase
- acetylcholine levels of frontal cortex ([2]; across doses): dose-dependent increase
- Reversal of Scopolamine Induced amnesia - Effective dose range [3]: 1 mg/kg, p.o.
